This test concerns the target Aldo-keto reductase family 1 member B1 (Rattus norvegicus, UniProt P07943). Put plainly: Inhibition of Rattus norvegicus (rat) lens aldose reductase.

Experimental findings from ChEMBL document CHEMBL3045136, “QSAR and flexible docking studies of some aldose reductase inhibitors obtained from natural origin” (Med Chem Res, 2012) are described below.

The term IC50 denotes the concentration that inhibits the measured activity by half. A high value points to weaker potency in that assay. For `COC(=O)c1cc2cc3cc4cc(CC(=O)O)c(C(=O)/C=C(\O)c5ccccc5O)c(OC)c4c(OC)c3c(O)c2c(=O)o1`, the IC50 was 0.00129 µM.
The result for `COc1cc2c(c(O)c1C)COC(C)C2` (centres undefined) [6-METHOXY-3,7-DIMETHYLISOCHROMAN-8-OL] reads 33.1 µM; that for `CC(=O)c1c(O)cc(O)cc1O[C@@H]1OC(COC(=O)c2cc(O)c(O)c(O)c2)[C@H](O)[C@H](O)[C@@H]1O` (some centres undefined), 28.8 µM.
The result for `CCOc1ccc(C(=O)/C(C)=C(/C)C(=O)c2ccc(O)c(OC)c2)cc1OC` reads 34.7 µM.
Then `Cc1cc(C(=O)O)c(O)c2c1[C@H](C)[C@@H](C)OC2`, with 12 µM; and `CC(C)c1ccc2c(c1)CCC1[C@@](C)(C(=O)O)CCC[C@]21C` (some centres undefined), with 35.5 µM.
As to `Cc1cccc2c3c(ccc12)C(=O)C(C(C)CO)=C(O)C3=O` (centres undefined) [DANSHENXINKUN A], the IC50 was 0.871 µM.
In turn, `COc1cc([C@H]2O[C@@H](c3ccc(O)c(OC)c3)[C@H](C)[C@@H]2C)ccc1O` [NECTANDRIN B] showed an IC50 of 38 µM.
The result for `O=Cc1ccc(CO)o1` [AES-103] reads 182 µM.
The result for `O=C(/C=C/c1ccc(O)c(O)c1)OC1C[C@](O)(C(=O)O)C[C@H](O)[C@@H]1O` (some centres undefined) reads 1.82 µM.
On to `COc1cc([C@H]2O[C@@H](c3ccc(O)c(OC)c3)[C@@H](C)[C@H]2C)ccc1O` [TETRAHYDROFUROGUAIACIN B], for which the IC50 was 21.4 µM.
The result for `CNC(=O)Oc1c(C)c(OC)cc2c1COC(C)C2` (centres undefined) reads 34.7 µM; that for `COc1cc2c(=O)oc3c(O)c(O)cc4c(=O)oc(c1O)c2c34`, 10 µM; that for `CC(=O)C[C@@]1(O)C(=O)C2=C(OC[C@@H]2C)c2ccc3c(C)cccc3c21`, 0.1 µM.
The result for `Cc1coc2c1C(=O)C(=O)c1c-2ccc2c(C)cccc12` [TANSHINONE I] reads 10 µM.
In turn, `C=C(C)C1CCC(CO[C@H]2OC(CO)C(O)[C@H](O)[C@@H]2O)CC1` (some centres undefined) had an IC50 of 46.8 µM.
The result for `C=C(C)C1CCC(COC2O[C@H](CO)[C@H](O)[C@@H](O)C2O)CC1` (some centres undefined) reads 28.2 µM.
For the compound `CC(=O)O[C@H]1C[C@]2(CO)C3CC[C@@]4(C)C(C(=O)CC(=O)[C@@H]4C)[C@]3(C)CC[C@@]2(C)C2CC(C)(C)CC[C@@]21C` (some centres undefined), the IC50 was 47.9 µM.
Then `CC(C(=O)O)N1Cc2c(cc3c(c2O)CC([C@@H](C)C(=O)O)O3)C1=O` (some centres undefined), with 4.47 µM; and `O=C(/C=C/c1ccc(O)c2c1[C@H](C(=O)O[C@@H](Cc1ccc(O)c(O)c1)C(=O)O)[C@@H](c1ccc(O)c(O)c1)O2)O[C@H](Cc1ccc(O)c(O)c1)C(=O)O`, with 2.63 µM.
In turn, `C[C@@H](C(=O)O)C1Cc2c(cc3c(c2O)C(=O)N(CC(=O)O)C3=O)O1` (some centres undefined) showed an IC50 of 0.447 µM.
Compound `O=C(O)C1Cc2c(oc(=O)c3cc(O)c(O)c(O)c23)C1=O` (centres undefined) had an IC50 of 2.4 µM.
`O=C1CC(O)C1=O` (centres undefined) showed an IC50 of 19.1 µM.
On to `CC1(C)CC2C1CC[C@@]1(C)C[C@]2(O)CC[C@@H]1O` (some centres undefined), for which the IC50 was 44.7 µM.
`O=C(/C=C/c1ccc(O[C@@H](C(=O)O)[C@@H](O)c2ccc(O)c(O)c2)c(O)c1)O[C@H](Cc1ccc(O)c(O)c1)C(=O)O` showed an IC50 of 2.82 µM.
The result for `CC1(C)C2CC[C@]3(C)C(CC=C4C5C[C@](C)(C(=O)O)C[C@@H](O)[C@]5(C)CC[C@]43C)[C@@]2(C)CC[C@@H]1O` (some centres undefined) reads 55 µM; that for `O=CC(O)C(O)(Oc1ccc(/C=C/C(=O)O[C@H](Cc2ccc(O)c(O)c2)C(=O)O)cc1O)C(O)C(O)CO` (some centres undefined), 3.16 µM.
Then `C[C@@H](C(=O)O)C1Cc2c(cc3c(c2O)CN(CC(=O)O)C3=O)O1` (some centres undefined), with 1.26 µM; and `C=C(C)[C@@H]1CC=C(COC2OC(CO)[C@H](O)[C@H](O)[C@H]2O)CC1` (some centres undefined), with 55 µM.
Consider `Cc1cccc2c3c(ccc12)C1=C(C(=O)C3=O)[C@@H](C)CO1` [DIHYDROTANSHINONE I], for which the IC50 is 1.2 µM.
Consider `CC(=O)C[C@@]1(O)C(=O)C2=C(OC[C@@H]2C)c2ccc3c(c21)CCCC3(C)C`, for which the IC50 is 1.74 µM.
Then `COc1cc(/C=C(/C)[C@H](C)Cc2ccc(O)c(OC)c2)ccc1O`, with 35.5 µM; and `CC(=O)C1=C(O)C2=CO[C@H](C)[C@@H](C)C2=C(C)C1=O`, with 8.71 µM.
Regarding `CCOC(=O)C1Cc2c(oc(=O)c3cc(O)c(O)c(O)c23)C1=O` (centres undefined), inhibition was half-maximal at 5.01 µM (IC50).
With `O=C1C(O)=CC(=O)c2c(O)cc(O)cc21` [FLAVIOLIN], the IC50 is 43.7 µM.
The result for `C[C@@H](C(=O)O)C1Cc2c(cc3c(c2O)C(=O)NC3=O)O1` (some centres undefined) reads 5.37 µM; that for `COc1cc2c(c(OC)c1OC)-c1c(cc(O)c(OC)c1OC)C[C@H](C)[C@H](C)[C@H]2O`, 38 µM; that for `CC(CCC(=O)O)N1Cc2c(cc3c(c2O)CC([C@@H](C)C(=O)O)O3)C1=O` (some centres undefined), 12 µM.
Then `CC(C(=O)O)N1C(=O)c2cc3c(c(O)c2C1=O)CC([C@@H](C)C(=O)O)O3` (some centres undefined), with 2 µM; and `CC1(C)C2CC[C@]3(C)C(CC=C4C5C[C@](C)(C(=O)O)C[C@H](O)[C@]5(C)CC[C@]43C)[C@@]2(C)CC[C@@H]1O` (some centres undefined), with 75.9 µM.
Then `C[C@H]1COC2=C1C(=O)C(=O)c1c2ccc2c1CCCC2(C)C` [CRYPTOTANSHINONE], with 4.79 µM.
`CC1(C)C[C@H](O)[C@]23CC[C@@H](O)[C@](C)(CCC12)C3` (some centres undefined) gave an IC50 of 95.5 µM.
For `CC(C)c1ccc2c(c1)CCC1[C@@](C)(CO)CCC[C@]21C` (some centres undefined), the IC50 was 38.9 µM.
As for `COc1cc2c(c(OC)c1C)COC(C)C2` (centres undefined) [6,8-DIMETHOXY-3,7-DIMETHYLISOCHROMAN], it took 100 µM to reach half-maximal inhibition (IC50).
As for `COc1cc([C@H]2O[C@H](c3ccc(O)c(OC)c3)[C@@H](C)[C@H]2C)ccc1O`, the IC50 was 25.1 µM.
With `CCCC/C=C/CCCCCCCCCC1=C(OC)C(=O)C=C(OC)C1=O`, half-maximal inhibition (IC50) required 55 µM.
The compound `O=C(/C=C/c1ccc(O)c(O)c1)O[C@H](Cc1ccc(O)c(O)c1)C(=O)O` [ROSMARINIC ACID] had a concentration for half-maximal inhibition (IC50) of 3.89 µM.
In turn, `COc1cc(C(=O)/C(C)=C(/C)C(=O)c2ccc(O)c(OC)c2)ccc1O` gave an IC50 of 100 µM.
The result for `C=C(C)[C@@H]1CC=C(COC2OC(CO)[C@H](O)[C@@H](O)[C@@H]2O)CC1` (some centres undefined) reads 14.5 µM.
